Data as given in US10104893B2, “Pesticidally active polycyclic derivatives with sulfur substituted five membered ring heterocyles” (Syngenta Participations AG, priority 2015, dated 2018).
Where two headings read alike, the source gives them in different places.

Experiments:
[1] = system: Plutella xylostella (Diamond Back Moth); assay: Insecticidal action against Plutella xylostella; assay type: in vivo; conditions: 120 h, read-out: effect in at least one of the two categories (mortality or growth inhibition); for percent effect (mortality or growth inhibition) at 200 ppm: application rate of 200 ppm, artificial diet, L2 larvae, 5 days after infestation
Protocol: Example B7: Insecticidal Action Against Plutella xylostella (Diamond Back Moth)
(§1) 24-well microtiter plates with artificial diet were treated with aqueous test solutions prepared from 10′000 ppm DMSO stock solutions by pipetting. After drying, the plates were infested with L2 larvae (10 to 15 per well). The samples were assessed for mortality and growth inhibition in comparison to untreated samples 5 days after infestation.

[2] = system: Diabrotica balteata (Corn Root Worm); assay: Insecticidal action against Diabrotica balteata; assay type: in vivo; conditions: 96 h, read-out: effect in at least one of the two categories (mortality or growth inhibition); for percent effect (mortality or growth inhibition) at 200 ppm: application rate of 200 ppm, maize sprouts, L2 larvae, 4 days after infestation
Protocol: Example B2: Insecticidal Action Against Diabrotica balteata (Corn Root Worm)
as §1, with “Maize sprouts placed onto an agar layer in 24-well” for “24-well”, “plates” for “plates with artificial diet”, “spraying.” for “pipetting.”, “(6” for “(10”, “10” for “15”, “4” for “5”

[3] = system: Spodoptera littoralis (Egyptian Cotton Leaf Worm); assay: Insecticidal action against Spodoptera littoralis, sprayed cotton leaf discs; assay type: in vivo; conditions: foliar, 72 h, read-out: control (mortality, anti-feeding effect, growth inhibition)
Protocol: Example B8: Insecticidal Action Against Spodoptera littoralis (Egyptian Cotton Leaf Worm)
Cotton leaf discs were placed onto agar in 24-well microtiter plates and sprayed with aqueous test solutions prepared from 10′000 ppm DMSO stock solutions. After drying the leaf discs were infested with five L1 larvae. The samples were assessed for mortality, anti-feeding effect, and growth inhibition in comparison to untreated samples 3 days after infestation. Control of Spodoptera littoralis by a test sample is given when at least one of the categories mortality, anti-feeding effect, and growth inhibition is higher than the untreated sample.

[4] = system: Myzus persicae (Green Peach Aphid); assay: Insecticidal action against Myzus persicae: feeding/contact activity; assay type: in vivo; conditions: foliar, 144 h
Protocol: Example B4: Insecticidal Action Against Myzus persicae (Green Peach Aphid): Feeding/Contact Activity
Sunflower leaf discs were placed onto agar in a 24-well microtiter plate and sprayed with aqueous test solutions prepared from 10′000 ppm DMSO stock solutions. After drying, the leaf discs were infested with an aphid population of mixed ages. The samples were assessed for mortality 6 days after infestation.

[5] = system: Euschistus heros (Neotropical Brown Stink Bug); assay: Insecticidal action against Euschistus heros; assay type: in vivo; conditions: 120 h, read-out: effect in at least one of the two categories (mortality or growth inhibition); for percent effect (mortality or growth inhibition) at 200 ppm: application rate of 200 ppm, soybean leaves, N2 nymphs, 5 days after infestation
Protocol: Example B3: Insecticidal Action Against Euschistus heros (Neotropical Brown Stink Bug)
Soybean leaves on agar in 24-well microtiter plates were sprayed with aqueous test solutions prepared from 10′000 ppm DMSO stock solutions. After drying the leaves were infested with N2 nymphs. The samples were assessed for mortality and growth inhibition in comparison to untreated samples 5 days after infestation.

[6] = application rate of 200 ppm, cotton leaf discs, L1 larvae, 3 days after infestation

Compound	melting point [°C]	percent effect (mortality or growth inhibition) at 200 ppm [1] [%]	percent effect (mortality or growth inhibition) at 200 ppm [2] [%]	mortality at 200 ppm [3, 6] [%]	percent effect (mortality or growth inhibition) at 200 ppm [5] [%]	further results
CCn1c(C(F)(F)F)cc2nc(-c3sc(-c4cccc(F)c4)cc3S(=O)(=O)CC)n(C)c2c1=O	194 to 195	–	–	–	–	–
CCn1c(C(F)(F)F)cc2nc(-c3sc(-c4cc(F)cc(F)c4)cc3S(=O)(=O)CC)n(C)c2c1=O	180 to 182	–	–	–	–	–
CCSc1cc(-c2ccc(Cl)cc2)sc1-c1nc2cc(C(F)(F)F)n(CC)c(=O)c2n1C [A1, 2-[5-(4-chlorophenyl)-3-ethylsulfanyl-2-thienyl]-5-ethyl-3-methyl-6-(trifluoromethyl)-3aH-imidazo[4,5-c]pyridin-4-one]	–	≥ 80	≥ 80	–	–	–
CCn1c(C(F)(F)F)cc2nc(-c3sc(-c4ccc(Cl)cc4)cc3S(=O)(=O)CC)n(C)c2c1=O [A2, 2-[5-(4-chlorophenyl)-3-ethylsulfonyl-2-thienyl]-5-ethyl-3-methyl-6-(trifluoromethyl)-3aH-imidazo[4,5-c]pyridin-4-one]	–	–	–	–	–	mortality at 200 ppm [3]: ≥ 80%; percent control (mortality or growth inhibition) at 200 ppm [1]: ≥ 80%; mortality at 200 ppm [4]: ≥ 80%; percent control (mortality or growth inhibition) at 200 ppm ([5]; in Glycine max): ≥ 80%; percent control (mortality or growth inhibition) at 200 ppm [2]: ≥ 80%
CCS(=O)(=O)c1cc(I)sc1-c1nc2cc(C(F)(F)F)n(C)c(=O)c2n1C [A44, 2-(3-ethylsulfonyl-5-iodo-2-thienyl)-3,5-dimethyl-6-(trifluoromethyl)imidazo[4,5-c]pyridin-4-one]	–	≥ 80	≥ 80	≥ 80	≥ 80	–
CCS(=O)(=O)c1sc(-c2ccc(Cl)cc2)nc1-c1nc2cc(C(F)(F)F)n(C)c(=O)c2n1C [A48, 2-[2-(4-chlorophenyl)-5-ethylsulfonyl-thiazol-4-yl]-3,5-dimethyl-6-(trifluoromethyl)imidazo[4,5-c]pyridin-4-one]	–	≥ 80	≥ 80	≥ 80	≥ 80	–
